Measured values as given in US6716829B2, “Aldosterone antagonist and cyclooxygenase-2 inhibitor combination therapy to prevent or treat inflammation-related cardiovascular disorders” (Pharmacia Corporation, priority 2000, dated 2004).
Several values for one entry are separate records, joined by “and”; a condition that tells them apart may be missing. Equal values may be shown once.

Columns and labels:
[1] = Assay C: body weight, left and right ventricle weight, tibia length (myocardial hypertrophy); format: in vivo, Male Sprague-Dawley rats
Protocol: The procedure of Assay B was expanded upon in a further study. […] Myocardial tissue from animals in each treatment group was examined after 7, 14, or 30 days of treatment.
Male Sprague-Dawley rats, weighing 230 to 250 g, (Harlan Sprague-Dawley Industries, Indianapolis, IN) were housed in a room 12-hours light/12-hours dark daily cycle at an ambient temperature of 22±1° C. (n=96). Animals were allowed one week to adjust after arrival and had free access to TEKLAD 22/5 rodent diet (Harlan TEKLAD, Madison, Wis.) and tap water until the initiation of the experiment.
Potassium chloride supplementation was added to the saline solution in order to prevent the potential hypokalemia associated with aldosterone excess.
At the time of the surgery, an Alzet 2002 osmotic minipump (Alza Corp., Palo Alto, Calif.) containing either vehicle (9% ethanol/87% propylene glycol/4% dH2O) or 1.0 mg/mL d-aldosterone (Sigma Chemical, St. Louis, Mo.) was inserted subcutaneously at the nape of the neck. Aldosterone was administered at a dose of 0.75 µg/hour. […] Animals were sacrificed from each group (n=8-13) after 7, 14, or 30 days of treatment.
Animals to be sacrificed after 7 or 14 days of treatment were uninephrectomized and implanted with an Alzet minipump. Animals treated for 30 days were uninephrectomized, fitted for Alzet minipumps, and implanted with radio telemetry units (model #TA11PA-C40, Data Sciences Inc., St. Paul, Minn.) according to the following procedure. Animals were anesthetized with 5% isoflurane (SOLVAY Animal Health Inc., Mendota Heights, Minn.), which was delivered in O2 using a VMS anesthesia instrument (Matrix Medical, Inc., Orchard Park, N.Y.). Anesthesia was maintained with 1-2% isoflurane throughout the surgical procedure. The surgery site was clipped, scrubbed with nolvasan, and sprayed with betadine. A rostral-caudal incision was made through the skin from the base of the rib cage to the pubic region using a #11 scalpel blade. A second incision was made through the muscles of the abdominal wall to expose the peritoneal cavity. The […], renal artery and vein of the left kidney were isolated, tied off with 4-0 silk, and the kidney excised and discarded. Organs were carefully displaced with tissue retractors in order to expose the abdominal aorta. A 1.5 cm segment just rostral to the bifurcation of the abdominal aorta into the iliac arteries was cleared of excessive connective tissue and 4-0 silk was used to make an anchor adjacent to the aorta. A microvascular clip was then placed at both ends of the cleaned region to stop excessive blood flow. Using a bent, 21 gauge needle, the abdominal aorta was penetrated. The cannula of the radio telemetry unit was inserted and stabilized in the aorta using the 4-0 silk anchor. Organs were repositioned and the telemetry unit was placed over the organs. Using a non-interrupted suture pattern with 4-0 silk, the abdominal wall was closed, and the skin was subsequently closed using a 4-0 silk in an interrupted suture pattern. Animals were injected around the sutures with 100 μL of the anesthetic Marcaine HCl (Sanofi Winthrop Pharmaceuticals, New York, N.Y.) and given an injection (i.m.) of the antibiotic Mandol (Eli Lilly & Co., Indianapolis, Ind.). Post-operative care included monitoring the animals on a heating pad during recovery from anesthesia until sternal recumbency was reestablished. Animals were monitored daily for signs of distress and infection at the surgical site. Animals displaying continued discomfort after surgery were treated with 0.1-0.5 mg/kg, s.c. Buphrenorphine (Rickett & Colman Pharmaceuticals, Inc. Richmond, Va.). Animals were then placed on tap water and TEKLAD 22/5 rodent diet (Harlan TEKLAD, Madison, Wis.).

[2] = tested on: angiotensin II infused rats; assay: Assay A, angiotensin II infusion model: systolic blood pressure by tail-cuff; format: in vivo, Male Wistar rats; conditions: angiotensin II 25 ng/min sc, 1% NaCl; eplerenone 100 mpk; aldosterone in adrenalectomized rats; 4 weeks
Protocol: Human cardiovascular disorders are complex conditions, often initiated by vascular hypertension or a myocardial infarction (MI). In order to determine the probable effectiveness of a therapy for cardiovascular disorders, it is important to determine the potency of components in several assays. Accordingly, in Assay “A”, the efficacy of the aldosterone antagonist epeplerenone (epoxymexrenone) was determined in a hypertensive rat model with vascular inflammation, using angiotensin II infusion. In Assay “B” a study is described evaluating the efficacy of the aldosterone antagonist epeplerenone (epoxymexrenone) in a rat model using aldosterone infusion to produce hypertension with vascular inflammation. In Assay “C” a further study is described evaluating the efficacy of the aldosterone antagonist epeplerenone (epoxymexrenone) in a rat model using aldosterone infusion to produce hypertension with vascular inflammation.
Assay A: In Vivo Angiotensin II Infusion Model
Male Wistar rats (n=50, 10/group; BW=200 g)
SBP measured by tail-cuff every week

osteopontin = assay: Assay B: osteopontin mRNA in heart by quantitative RT-PCR (Taqman); format: in vivo, Male Sprague Dawley rats
Protocol: Assay B: In Vivo Aldosterone Infusion Model Male Sprague Dawley rats (n=39; BW=250 g) 2. Aldosterone ([…], sc via alzet minipump) 2. […] Hearts were harvested and divided by half through a transverse section at the mid-ventricles: The upper half was stored into formalin. The bottom part was snap-frozen in liquid nitrogen for biochemical analysis. Determination of osteopontin and COX-2 was performed by quantitative RT-PCR (Taqman). Osteopontin was also identified in the heart by immunohistochemistry.

[3] = 14-day protocol, individual rats and group Mean, listed as Aldosterone + salt
[4] = 14-day protocol, individual rats and group Mean, listed as Aldosterone + salt, mean
[5] = 30-day protocol, individual rats and group Mean, listed as Aldosterone + salt
[6] = 30-day protocol, individual rats and group Mean, listed as Aldosterone + salt, group mean
[7] = mean ± SEM after 7 days of treatment, aldosterone + salt, eplerenone 100 mg/kg/day
[8] = mean ± SEM after 14 days of treatment, aldosterone + salt, eplerenone 100 mg/kg/day
[9] = mean ± SEM after 30 days of treatment, eplerenone dose 100 mg/kg/day

For `C[C@]12CCC(=O)C=C1CC[C@@H]1[C@@H]2[C@@H](O)C[C@]2(C=O)[C@@H](C(=O)CO)CC[C@@H]12` [Aldosterone], the “Left Ventricle Weight” value [1, 3] was 846 mg and 784 mg and 912 mg and 720 mg and 923 mg and 854 mg and 894 mg and 859 mg and 750 mg and 818 mg and 746 mg and 700 mg, the “Left Ventricle Weight/ Tibia Length” value [1, 3] was 223 mg/cm and 206 mg/cm and 234 mg/cm and 189 mg/cm and 237 mg/cm and 225 mg/cm and 229 mg/cm and 220 mg/cm and 197 mg/cm and 215 mg/cm and 202 mg/cm and 194 mg/cm and the “Right Ventricle Weight” value [1, 3] was 194 mg and 189 mg and 208 mg and 174 mg and 217 mg and 186 mg and 216 mg and 171 mg and 153 mg and 195 mg and 172 mg. For the same molecule, the “Right Ventricle Weight/ Tibia Length” value [1, 3] was 51 mg/cm and 50 mg/cm and 53 mg/cm (3×) and 56 mg/cm and 49 mg/cm and 55 mg/cm and 44 mg/cm and 40 mg/cm and 48 mg/cm, the “Left Ventricle Weight” value [1, 4] was 817 mg and the “Left Ventricle Weight/ Tibia Length” value [1, 4] was 214 mg/cm. The “Right Ventricle Weight” value [1, 4] was 189 mg, the “Right Ventricle Weight/ Tibia Length” value [1, 4] was 50 mg/cm and the “Left Ventricle Weight” value [1, 5] was 934 mg and 726 mg and 963 mg and 942 mg and 1030 mg and 837 mg and 962 mg and 873 mg and 919 mg. The “Left Ventricle Weight/ Tibia Length” value [1, 5] was 234 mg/cm and 191 mg/cm and 247 mg/cm (2×) and 242 mg/cm (2×) and 264 mg/cm and 215 mg/cm and 218 mg/cm, the “Right Ventricle Weight” value [1, 5] was 196 mg and 148 mg and 215 mg and 176 mg and 224 mg and 173 mg and 220 mg and 187 mg and 185 mg and the “Right Ventricle Weight/ Tibia Length” value [1, 5] was 49 mg/cm (2×) and 39 mg/cm and 55 mg/cm and 45 mg/cm and 57 mg/cm and 44 mg/cm and 56 mg/cm and 47 mg/cm. For the same molecule, the “Left Ventricle Weight” value [1, 6] was 910 mg, the “Left Ventricle Weight/ Tibia Length” value [1, 6] was 233 mg/cm and the “Right Ventricle Weight” value [1, 6] was 192 mg. The “Right Ventricle Weight/ Tibia Length” value [1, 6] was 49 mg/cm, the Body weight ([1]; aldosterone + salt at days 7, 14 and 30 vs vehicle + salt, eplerenone effect at day 30) was “significantly lower” and the “Ventricular hypertrophy (absolute ventricular weights, ventricular weight to tibia length ratios)” value ([1]; aldosterone + salt, 7 to 30 days, eplerenone 100 mg/kg/day) was “Significant left and right ventricular hypertrophy”. For the same molecule, the “Final Body Weight” value [1, 7] was 277 ± 5 g, the “Left Ventricle Weight” value [1, 7] was 736 ± 25 mg and the Left Ventricle Weight/ Tibia Length [1, 7] was 194 ± 6 mg/cm. The “Right Ventricle Weight” value [1, 7] was 183 ± 7 mg, the Right Ventricle Weight/ Tibia Length [1, 7] was 48 ± 2 mg/cm and the “Final Body Weight” value [1, 8] was 270 ± 11 g. The “Left Ventricle Weight” value [1, 8] was 817 ± 22 mg, the Left Ventricle Weight/ Tibia Length [1, 8] was 214 ± 5 mg/cm and the “Right Ventricle Weight” value [1, 8] was 189 ± 5 mg. For the same molecule, the Right Ventricle Weight/ Tibia Length [1, 8] was 50 ± 1 mg/cm, the “Final Body Weight” value [1, 9] was 272 ± 10 g and the “Left Ventricle Weight” value [1, 9] was 910 ± 29 mg. The Left Ventricle Weight/ Tibia Length [1, 9] was 233 ± 7 mg/cm, the “Right Ventricle Weight” value [1, 9] was 192 ± 8 mg and the Right Ventricle Weight/ Tibia Length [1, 9] was 49 ± 2 mg/cm. The Systolic Blood Pressure [2] was “increased blood pressure”, the “Osteopontin mRNA upregulation” value (osteopontin; aldosterone/salt + vehicle vs control) was 7 fold and the “Osteopontin relative mRNA expression” value (osteopontin; hearts of aldosterone/salt-treated rats, quantitative RT-PCR, eplerenone 100 mpk) was 12.25±1.7.
